# Source: US20070142635A1, “Process for preparing hexahydropyrimido[1,2-a]azepine-2-carboxylates and related compounds” (priority 2003, published 2007)
# Target: HIV integrase (Human immunodeficiency virus type 1 group M subtype B, UniProt P04585)
# Assay: assay described in WO 02/30930 for inhibition of strand transfer in HIV integrase
# Assay type: biochemical
# From the text: As is clear from the foregoing description, compounds embraced by Formula X or XI and precursors thereof are useful as intermediates in the preparation of Compounds XII, XIII and XIV, which are HIV integrase inhibitors useful, inter alia, in treating HIV infection.
smiles,measurement,value
"CN(C)C(=O)C(=O)N(C)C1CCCCn2c1nc(C(=O)NCc1ccc(F)cc1)c(O)c2=O (racemic) [Compound 14, N-(2-{[(4-fluorobenzyl)amino]carbonyl}-3-hydroxY4-oxo-4,6,7,8,9,10-hexahydropyrnidor[1,2-α]azepin-10-yl)-N,N′,N′-trimethylethanediamide]",inhibition of strand transfer in HIV integrase,exhibited activity
